US20100104518A1, “CHEWING GUM, CONFECTION, AND OTHER ORAL DELIVERY VEHICLES CONTAINING A TRADITIONAL CHINESE MEDICINE OR EXTRACT THEREOF” (priority 2006, published 2010)

Legend:
Type in all cases: cell-based
P. gingivalis [1] = experiment: Minimum Inhibitive Concentration test (MIC) of TCM extracts on oral bacteria; conditions: ethanol TCM extract; Schaedler broth, two-fold dilutions, 24 hrs at 37° C.
Description: (§1) To evaluate the germ-kill efficacy, the dried crude TCM bark, stem, leaf or root was ground to powder. 10-50 grams of TCM powder was mixed with 100 ml of ethanol. The mixture was super-sonicated for 10-15 minutes to extract the TCM actives. The mixture was further transferred into a Mixxor solid-liquid phase extractor for extracting about 50 strokes. The solution was filtered by a 0.45 um Millipore filter. For determination of the TCM extract concentration, slight amount of TCM extract sample was accurately weighed on a pre-weighed aluminum weighing dish. It was dried in a 45° C. oven for 2 hours to evaporate ethanol. The sample dish was weighed again, and the concentration of TCM extract was determined as: conc.=(Dry weight−dish weight)/(wet weight−dish weight)×100%.
(§2) The germ-kill efficacy was determined by a Minimum Inhibitive Concentration test (MIC) and a Minimum Bactericidal Concentration (MBC) test. […] The solution was then serially diluted two-fold so that each subsequent dilution contained 50% of the compound concentration of the previous dilution while maintaining a constant level of nutrients for each dilution. These dilutions were inoculated with representative oral microorganisms, and incubated for 24 hrs at 37° C. For each TCM compound, the lowest dilution that was not turbid was registered as the MIC. The MBC was determined by transferring […] of liquid from no-turbid tubes to fresh growth media and incubated for 48 hrs. […] Table A & B list the MIC and MBC data on P. gingivalis, F. nucleatum and S. nutans.

S. mutans [2] = experiment: as above; conditions: ethanol TCM extract; Schaedler broth, two-fold dilutions, 24 hrs at 37° C.
Description: as §1, §2

F. nucleatum [3] = experiment: as above; conditions: ethanol TCM extract; Schaedler broth, two-fold dilutions, 24 hrs at 37° C.
Description: as §1, §2

P. gingivalis [4] = experiment: Minimum Bactericidal Concentration (MBC) test of TCM extracts on oral bacteria; conditions: transfer from non-turbid tubes to fresh growth media, 48 hrs
Description: as §1, §2

S. mutans [5] = experiment: as above; conditions: transfer from non-turbid tubes to fresh growth media, 48 hrs
Description: as §1, §2

F. nucleatum [6] = experiment: as above; conditions: transfer from non-turbid tubes to fresh growth media, 48 hrs
Description: as §1, §2

N=C(NCCCCCCNC(=N)NC(=N)Nc1ccc(Cl)cc1)NC(=N)Nc1ccc(Cl)cc1.O=C(O)[C@H](O)[C@@H](O)[C@H](O)[C@H](O)CO.O=C(O)[C@H](O)[C@@H](O)[C@H](O)[C@H](O)CO [Chlorohexdine Gluconate]
MIC P. gingivalis (P. gingivalis [1]): 2.5 ng/mL | MIC S. mutans (S. mutans [2]): 5 ng/mL | MIC F. nucleatum (F. nucleatum [3]): 5 ng/mL | MBC P. gingivalis (P. gingivalis [4]): 5 ng/mL | MBC S. mutans (S. mutans [5]): 10 ng/mL | MBC F. nucleatum (F. nucleatum [6]): 10 ng/mL
